Values of other authors in patent US20130130972A1, “ARTIFICIAL SWEETNERS AND PERFORMANCE” (priority 2010, published 2013).
Where a SMILES comes first, the peptide text is derived from it.

conditions: typically perceived sweetness, relative to sugar

Molecule | Sweetness by weight compared to sugar
CC1=CC(=O)NS(=O)(=O)O1 [Acesulfame potassium] | 200×
C[C@@H](NC(=O)[C@@H](N)CC(=O)O)C(=O)NC1C(C)(C)SC1(C)C [Alitame] | 2.000×
COC(=O)[C@H](Cc1ccccc1)NC(=O)[C@@H](N)CC(=O)O [Aspartame] (H-Asp-Phe-OMe) | 160-200×
CCOc1ccc(NC(N)=O)cc1 [Dulcin] | 250×
OC[C@@H](O)[C@@H](O)CO [Erythritol] | 0.7×
OCC(O)CO [Glycerol] | 0.6×
CC1(C)[C@@H](O[C@H]2O[C@H](C(=O)O)[C@@H](O)[C@H](O)[C@H]2O[C@@H]2O[C@H](C(=O)O)[C@@H](O)[C@H](O)[C@H]2O)CC[C@]2(C)[C@H]3C(=O)C=C4[C@@H]5C[C@@](C)(C(=O)O)CC[C@]5(C)CC[C@@]4(C)[C@]3(C)CC[C@@H]12 [Glycyrrhizin] | 50×
OC[C@@H](O)[C@@H](O[C@@H]1O[C@H](CO)[C@H](O)[C@H](O)[C@H]1O)[C@H](O)[C@@H](O)CO [Lactitol] | 0.4×
OC[C@@H](O)[C@@H](O[C@H]1O[C@H](CO)[C@@H](O)[C@H](O)[C@H]1O)[C@H](O)[C@@H](O)CO [Maltitol] | 0.9×
OC[C@@H](O)[C@@H](O)[C@H](O)[C@H](O)CO [Mannitol] | 0.5×
COc1ccc(CCC(=O)c2c(O)cc(O[C@@H]3O[C@H](CO)[C@@H](O)[C@H](O)[C@H]3O[C@@H]3O[C@@H](C)[C@H](O)[C@@H](O)[C@H]3O)cc2O)cc1O [Neohesperidin dihydrochalcone] | 1500×
COC(=O)[C@H](Cc1ccccc1)NC(=O)[C@H](CC(=O)O)NCCC(C)(C)C [Neotame] | 8000×
CCCOc1ccc([N+](=O)[O-])cc1N [P-4000] | 4000×
O=C1NS(=O)(=O)c2ccccc21 [Saccharin] | 300×
CC1=CC(=O)NS(=O)(=O)O1.COC(=O)[C@H](Cc1ccccc1)NC(=O)[C@@H](N)CC(=O)O [Salt of aspartame-acesulfame] (H-Asp-Phe-OMe) | 350×
OC[C@@H](O)[C@@H](O)[C@H](O)[C@@H](O)CO [Sorbitol] | 0.6×
OC[C@H]1O[C@H](O[C@]2(CCl)O[C@H](CCl)[C@@H](O)[C@@H]2O)[C@H](O)[C@@H](O)[C@H]1Cl [Sucralose] | 600×
O=C(CO)[C@@H](O)[C@@H](O)[C@H](O)CO [Tagatose] | 0.92×
OC[C@@H](O)[C@H](O)[C@@H](O)CO [Xylitol] | 1.0×
Brazzein (QDKCKKVYENYPVSKCQLANQCNYDCKLDKHARSGECFYDEKRNLQCICDYCEY; UniProt P56552 1-54, looked up) [natural sugar substitute] | 800×
Curculin | 550×
Glucin | 300×
Mabinlin [Mabinlin Protein] | 100×
Monellin | 3000×
Pentadin | 500×
Thaumatin | 2000×
